What was measured:
[1] = tested on: CT-DNA; assay: UV-Vis absorption titration with CT-DNA; type: binding, calf; conditions: ΔG = −RT lnKb
Description: All DNA-binding studies were conducted in 0.01 M phosphate-buffered saline (PBS, pH 7.40) at 25 °C. […] To eliminate absorbance from CT-DNA, identical amounts of DNA were added to both the test and reference solutions prior to spectral recording.
Intrinsic binding constants (Kb) were calculated using the equation to determine the DNA-binding affinities of the complexes (1):[DNA]/(εa − εf) = [DNA]/(εb − εf) + 1 [Kb(εb − εf)](1)
[DNA] represents the concentration of DNA; apparent extinction coefficient, εa, was calculated as the ratio of the observed absorbance to the concentration of the complex (Aobs/[complex]); and εb and εf correspond to the extinction coefficients of the complex in the fully bound and free forms, respectively. Kb was determined from the ratio of the slope to the intercept obtained from the corresponding linear plots.

[2] = tested on: CT-DNA; assay: EB–CT-DNA fluorescence quenching; type: binding, calf; conditions: EB–CT-DNA 8.52 × 10^−5 M, PBS pH 7.4
Description: All samples were prepared in phosphate-buffered saline (PBS, pH 7.4). Stern–Volmer Equation (2) was used to interpret the fluorescence quenching data.

[3] = tested on: CT-DNA; assay: Viscosity measurements of DNA solution; set-up: species or system calf; conditions: up to r = 1.0, 8 µM DNA
Description: Viscosity measurements were performed to evaluate the interaction of C2 and C4 with DNA. The flow time was measured with a digital stopwatch. For each concentration, six replicate measurements were taken, and the average flow time was used for analysis. The data were presented as (η/η0)^1/3 against r, where η is the viscosity of DNA in the presence of complex, and η0 is the viscosity of DNA alone in the buffered solution. The viscosity value was calculated from the observed flow time of DNA-containing solution (t) corrected for the flow time of buffer alone (t0), η = (t − t0)/t0.

[4] = biological target: T1, BSA (Bos taurus, UniProt P02769); assay: BSA tryptophan fluorescence quenching; type: binding, bovine; conditions: for kq (quenching rate constant) / Ksv (Stern–Volmer constant): BSA 2 µM; for Ksv (Stern–Volmer constant): λex 295 nm; for K (binding constant) / n (number of binding sites): Scatchard equation
T1 construct: purchased Sigma-Aldrich
Description: The protein binding study was carried out using tryptophan fluorescence quenching experiments with BSA. […] Fluorescence emission spectra were recorded between 300 and 500 nm, with excitation at 295 nm.
The quenching constant Ksv was determined based on the Stern–Volmer relationship, as described by Equation (3):I0/I = 1 + kqτ0[Q] = 1 + Ksv[Q](3)
In this equation, I0 and I refer to the fluorescence intensities of BSA measured without and with the quencher (complex), τ0 represents the average fluorescence lifetime of free BSA (∼10^−8 s), and [Q] indicates the quencher concentration.
Parameters such as association binding constant (K) and the number of binding sites per albumin (n) were obtained from Scatchard Equation (4):(ΔI/I0)/[Q] = nK − KΔI/I0(4)
To minimize inner filter, both intensities of fluorescence originating from excitation and emission light absorption and re-absorption were corrected by employing Equation (5); Icor and Iobs are the corrected and observed fluorescence intensities, respectively, and Aex and Aem represent the absorbance of the metal complex at the excitation and emission wavelengths, respectively.Icor = Iobs · […]^(Aex + Aem)/2(5)

[5] = tested on: Mouse breast cancer (4T1); assay: MTT assay 4T1; type: cell-based; conditions: 4T1, 48 h
Description: (§1) Mouse breast cancer (4T1), human breast cancer (MDA-MB-468), mouse colon cancer (CT26), human colon cancer (HCT-116), mouse lung cancer (LLC1), human lung cancer (A549), mouse mesenchymal stem cells (mMSC), and human fibroblast cell lines (MRC-5) were used in this study and were consistently cultured in complete Dulbecco’s Modified Eagle Medium (DMEM) (Sigma-Aldrich, St. Louis, MO, USA) in incubator (5% CO2) under standard conditions. Complete DMEM was Dulbecco’s Modified Eagle Medium supplemented with 10% fetal bovine serum (FBS), 1 mmol/L penicillin–streptomycin, 1 mmol/L mixed nonessential amino acids, and 2 mmol/L L-glutamine (Sigma-Aldrich, St. Louis, MO, USA). All cancer cell lines and MRC-5 cell line were obtained from American Type Culture Collection (ATCC, Manassas, VA, USA), but mMSC was manufactured by Gibco (Middlesex County, MA, USA).
(§2) In 96-well microplates, we seeded cancer and non-cancer cells, more exactly 5 × 10^3 cells per well in 100 μL of complete DMEM (Sigma-Aldrich, St. Louis, MO, USA). […] Tested concentration range for all metal-based substances was 3.9–500 μM. After incubation with MTT solution (5 mg/mL; pH 7.2) for 4 h, optical density was determined using Zenyth 3100 microplate multimode detector (Salzburg, Austria). All experiments were performed three times, each in triplicate, and the IC50 values as well as selectivity indexes (IC50 for mMSC or MRC-5/IC50 for mouse or human cancer cells) were calculated.

[6] = tested on: human breast cancer (MDA-MB-468); assay: MTT assay MDA-MB-468; type: cell-based
Description: as §1, §2

[7] = tested on: mouse lung cancer (LLC1); assay: MTT assay LLC1; type: cell-based
Description: as §1, §2

[8] = tested on: human lung cancer (A549); assay: MTT assay A549; type: cell-based
Description: as §1, §2

[9] = tested on: mouse mesenchymal stem cells (mMSC); assay: MTT assay mMSC; type: cell-based
Description: as §1, §2

[10] = tested on: human fibroblast cell lines (MRC-5); assay: MTT assay MRC-5; type: cell-based
Description: as §1, §2

[11] = tested on: CT26 cells; assay: Annexin V/PI apoptosis in CT26; type: cell-based, mouse; conditions: 0.5 μM for 24 h
Description: (§3) The following supporting information can be downloaded at https://www.mdpi.com/article/10.3390/pharmaceutics17101340/s1. NMR and FTIR spectra of free ligands and complexes. Figure S1. […] Inset: Plot of [DNA]/(εA − εf) vs. [DNA]. Figure S2. Relative viscosity (η/η0) ^1/3 of CT-DNA (8 µM) in PBS buffer solution with the addition of increasing amounts (r) of C2 and C4 complexes. Figure S3. […] [EB] = 8.52 × 10^−5 M; [DNA] = 8.52 × 10^−5 M; [complex] = (0–6.82) × 10^−5; λex = 527 nm. Arrows show the intensity changes upon increasing the concentration of the complex. Inset graph: Plot of I0/I vs. [Q]. Figure S4. […] [BSA] = 2 μM; [complex] = 0–8 μM; λex = 295 nm. Arrows show the intensity changes upon increasing the concentration of the complex. Inset graph: Plot of I0/I vs. [Q]. Figure S5. […] Figure S6. Dose-dependent cytotoxicity of silver(I) complexes with S-alkyl derivatives of thiosalicylic acid. […] All data are presented as mean values ± SD from three independent experiments performed in triplicate. Figure S7. Dose-dependent cytotoxicity of S-alkyl derivatives of thiosalicylic acid. […] All data are presented as mean values ± SD from three independent experiments performed in triplicate. Figure S8. […] Apoptotic rates of C2-treated (0.5 μM for 24 h) as well as untreated CT26 and HCT116 cells were determined by flow cytometry using Annexin V (FITC) and PI double staining. […]

[12] = tested on: HCT116 cells; assay: Annexin V/PI apoptosis in HCT116; type: cell-based, human; conditions: 0.5 μM for 24 h
Description: as §3

[13] = tested on: CT-DNA; set-up: method as in PMID 25350363; conditions: cited from earlier work

T1 sequence (P02769 25-607): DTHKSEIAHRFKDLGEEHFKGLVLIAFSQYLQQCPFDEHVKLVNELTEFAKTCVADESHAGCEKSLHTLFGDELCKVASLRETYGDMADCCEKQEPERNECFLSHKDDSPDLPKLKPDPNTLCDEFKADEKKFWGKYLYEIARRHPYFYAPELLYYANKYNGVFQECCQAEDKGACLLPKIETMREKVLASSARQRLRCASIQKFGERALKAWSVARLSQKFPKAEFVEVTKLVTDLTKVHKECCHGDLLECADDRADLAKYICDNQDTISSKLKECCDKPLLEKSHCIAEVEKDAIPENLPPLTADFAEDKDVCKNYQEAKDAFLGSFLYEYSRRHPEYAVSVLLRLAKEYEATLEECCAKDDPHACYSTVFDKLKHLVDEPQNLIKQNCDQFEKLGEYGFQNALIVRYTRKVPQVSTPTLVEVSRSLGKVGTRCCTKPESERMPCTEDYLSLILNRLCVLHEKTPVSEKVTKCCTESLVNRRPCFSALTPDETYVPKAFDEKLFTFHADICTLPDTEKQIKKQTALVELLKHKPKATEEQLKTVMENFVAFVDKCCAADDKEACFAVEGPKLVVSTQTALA

Question: For `CCSc1ccccc1C(=O)[O][Ag].CCSc1ccccc1C(=O)[O][Ag]` [C2, [Ag2(S-ethyl-thiosal)2]], which “ΔG (Gibbs free energy)” value [1] is on record?
Answer: -6.76 kcal/mol

Question: What about the “Ksv EB (Stern–Volmer constant)” value [2] of the same compound?
Answer: (1.1 ± 0.1) × 10^4 M^−1

Question: What about the “viscosity of CT-DNA” value [3] of the same compound?
Answer: modest rise in the viscosity

Question: And the “kq (quenching rate constant)” value [4]?
Answer: (1.4 ± 0.1) × 10^13 M^−1 s^−1

Question: What about the “Ksv (Stern–Volmer constant)” value [4] of the same compound?
Answer: (1.4 ± 0.1) × 10^5 M^−1

Question: And the “K (binding constant)” value [4]?
Answer: (1.3 ± 0.1) × 10^5 M^−1

Question: What about the “n (number of binding sites)” value [4] of the same compound?
Answer: 1.1

Question: And the IC50 [5]?
Answer: 4.84 ± 0.92 µM

Question: What about the “Selectivity Index (IC50 mMSC or MRC-5/ IC50 Cancer Cell)” value (shortened to “Selectivity Index”) [5] of the same compound?
Answer: 0.93

Question: What about the IC50 ([6]; MDA-MB-468, 24 h) of the same compound?
Answer: 8.67 ± 1.13 µM

Question: What about the “Selectivity Index” value ([6]; MDA-MB-468, 24 h) of the same compound?
Answer: 4.39

Question: And the IC50 ([6]; MDA-MB-468, 48 h)?
Answer: 5.43 ± 0.34 µM

Question: And the “Selectivity Index” value ([6]; MDA-MB-468, 48 h)?
Answer: 7.95

Question: And the IC50 ([7]; LLC1, 24 h)?
Answer: 18.2 ± 0.93 µM

Question: What about the “Selectivity Index” value ([7]; LLC1, 24 h) of the same compound?
Answer: 0.24

Question: And the IC50 ([7]; LLC1, 48 h)?
Answer: 20.2 ± 0.79 µM

Question: What about the “Selectivity Index” value ([7]; LLC1, 48 h) of the same compound?
Answer: 0.22

Question: And the IC50 ([8]; A549, 24 h)?
Answer: 37.8 ± 1.01 µM

Question: What about the “Selectivity Index” value ([8]; A549, 24 h) of the same compound?
Answer: 1.01

Question: What about the IC50 ([8]; A549, 48 h) of the same compound?
Answer: 50.2 ± 1.07 µM

Question: What about the “Selectivity Index” value ([8]; A549, 48 h) of the same compound?
Answer: 0.86

Question: And the IC50 ([9]; 24 h)?
Answer: 4.29 ± 0.92 µM

Question: What about the IC50 ([9]; 48 h) of the same compound?
Answer: 4.52 ± 0.48 µM

Question: And the IC50 ([10]; MRC-5, 24 h)?
Answer: 38 ± 1.91 µM

Question: What about the IC50 ([10]; MRC-5, 48 h) of the same compound?
Answer: 43.2 ± 1.23 µM

Question: What about the “apoptosis of CT26 cells” value [11] of the same compound?
Answer: underwent apoptosis

Question: What about the “apoptosis of HCT116 cells” value [12] of the same compound?
Answer: underwent apoptosis

Question: Which Kb [13] does the source give for `CC[n+]1c(-c2ccccc2)c2cc(N)ccc2c2ccc(N)cc21.[Br-]` [ethidium bromide, 3,8-diamino-5-ethyl-6-phenylphenanthridinium bromide] here?
Answer: (1.23 ± 0.07) × 10^5 M^−1

Question: What does the source list for [Ag2(S-Methyl-Thiosal)2] [C1]?
Answer: ΔG (Gibbs free energy) [1]: -6.64 kcal/mol; Ksv EB (Stern–Volmer constant) [2]: (6.0 ± 0.1) × 10^3 M^−1; kq (quenching rate constant) [4]: (1.7 ± 0.1) × 10^13 M^−1 s^−1; Ksv (Stern–Volmer constant) [4]: (1.7 ± 0.1) × 10^5 M^−1; K (binding constant) [4]: (1.7 ± 0.1) × 10^5 M^−1; n (number of binding sites) [4]: 0.8; IC50 [5]: 4 ± 0.95 µM; IC50 ([6]; MDA-MB-468, 24 h): 4.19 ± 0.98 µM; Selectivity Index (IC50 mMSC or MRC-5/ IC50 Cancer Cell) ([6]; MDA-MB-468, 24 h): 11.05; IC50 ([6]; MDA-MB-468, 48 h): 4.37 ± 0.41 µM; Selectivity Index (IC50 mMSC or MRC-5/ IC50 Cancer Cell) ([6]; MDA-MB-468, 48 h): 12.18; IC50 ([7]; LLC1, 24 h): 39.8 ± 1.07 µM; IC50 ([7]; LLC1, 48 h): 32 ± 1.47 µM; IC50 ([8]; A549, 24 h): 58.3 ± 1.91 µM; Selectivity Index (IC50 mMSC or MRC-5/ IC50 Cancer Cell) ([8]; A549, 24 h): 0.79; IC50 ([8]; A549, 48 h): 48.6 ± 1.06 µM; Selectivity Index (IC50 mMSC or MRC-5/ IC50 Cancer Cell) ([8]; A549, 48 h): 1.10; IC50 ([10]; MRC-5, 24 h): 46.3 ± 1.52 µM; IC50 ([10]; MRC-5, 48 h): 53.2 ± 1.27 µM

— PMC12567082, “Silver(I) Complexes Bearing S-Alkyl Thiosalicylic Acid Derivatives: DNA/BSA Binding and Antitumor Activity In Vitro and In Vivo” (Pharmaceutics, 2025)
